Measurements: ChEMBL document CHEMBL1201862, “PubChem BioAssay data set” (2004)
Counter-ions that a name gives are not always drawn. Calls of active or inactive are those of the source.

Experiments:
Paired box protein Pax-8 = Paired box protein Pax-8 (Homo sapiens, UniProt Q06710); experiment: inhibitors of PAX8-driven TPO luciferase reporter, dose response, RMG-I cells, cherry-pick (AID 687027); assay type: functional, cell-based;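 note: luciferase reporter driven by Pax8 target thyroperoxidase promoter measured by SteadyGlo luminescence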
[1] = A549 cell cytotoxicity, dose response, CellTiter-Glo luminescence, dry powder, set 17 (AID 1117284); assay type: functional, cell-based
[2] = cytotoxicity in OVCAR8 ovarian cancer cells, dose response, PAX8 project, cell-based, plate reader, dry powder samples (AID 743197); assay type: functional; conditions: OVCAR-8
Bcl-2-like protein 10 = target: T1, Bcl-2-like protein 10 (Homo sapiens, UniProt Q9HD36); experiment: Biochemical TR3 FP assay of Bcl-B inhibitor potency, EC50 (AID 1243); assay type: functional
T1 sequence (Q9HD36 whole entry): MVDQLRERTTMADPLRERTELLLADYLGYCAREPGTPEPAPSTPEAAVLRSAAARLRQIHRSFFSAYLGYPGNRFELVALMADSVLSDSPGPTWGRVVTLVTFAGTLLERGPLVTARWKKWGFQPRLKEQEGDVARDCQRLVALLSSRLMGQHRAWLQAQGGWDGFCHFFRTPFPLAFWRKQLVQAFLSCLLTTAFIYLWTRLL

NS3 = NS3 (Hepatitis C virus, UniProt A3EZJ3); experiment: PubChem AID 2173; design: species or system Hepacivirus hominis
Genome polyprotein = Genome polyprotein (dengue virus type 2, UniProt P29990); experiment: Dengue-2 NS5 methyltransferase inhibitors, primary screen, biochemical, confirmation dose response (AID 588689); assay type: functional
[3] = inhibitors of non-replicating M. tuberculosis, dose response, luciferase, dry powder (AID 651620); assay type: functional; conditions: Mycobacterium tuberculosis
[4] = inhibitors of non-replicating M. tuberculosis, dose response, luciferase, dry powder (AID 651619); assay type: functional; conditions: Mycobacterium tuberculosis
[5] = Dose-response inhibition of insulin secretion in a rat insulinoma line at 5 mM glucose (AID 1117331); assay type: functional, cell-based; conditions: INS-1E
cells [6] = assay type: functional, cell-based; conditions: INS-1E
[7] = T. cruzi growth inhibition in host cells, dose response, cell-based, plate reader, dry powder, set 2 (AID 652275); assay type: functional
[8] = target: Transitional endoplasmic reticulum ATPase (Homo sapiens, UniProt P55072, C522A); experiment: Luminescence counterscreen assay for p97 inhibitors: dose response biochemical high throughput screening assay to identify inhibitors of the C522A mutant p97 ATPase: synthesized compounds. [Related pubchem assays: 1481, 1517, 1551 ]
[9] = target: Transitional endoplasmic reticulum ATPase (Homo sapiens, UniProt P55072); experiment: Luminescence dose response biochemical high throughput screening assay for inhibitors of the p97 ATPase: synthesized compounds. [Related pubchem assays: 1481, 1517 ]
[10] = target: Endoplasmic reticulum aminopeptidase 1 (Homo sapiens, UniProt Q9NZ08); experiment: ERAP1 aminopeptidase inhibitors, dose response, biochemical, cherry-pick, set 2, plate reader (AID 743314)
[11] = HepG2 cell cytotoxicity, dose response, cytotoxicity control, plate reader, dry powder samples (AID 1159569); assay type: functional, cell-based;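 note: inhibitor potency with signal falling toward the positive control level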
[12] = P. falciparum ATP4 D1247Y mutant growth inhibitors, dose response, NITD609-resistant line, SYBR Green, dry powder (AID 1159571); assay type: functional, cell-based;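 note: parasites synchronized at ring stage by sorbitol before testing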
[13] = P. falciparum Dd2 growth inhibitors, dose response, SYBR Green, dry powder samples (AID 1159566); assay type: functional, cell-based;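 note: potency for growth inhibition with lower SYBR green DNA signal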
[14] = P. falciparum 3D7-ScDHODH growth inhibitors, dose response, SYBR Green, dry powder samples (AID 1159570); assay type: functional, cell-based;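 note: parasite growth measured after 72 hours of compound exposure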
[15] = P. falciparum Dd2 growth inhibitors, dose response, SYBR Green, cherry-picked samples (AID 1159567); assay type: functional, cell-based
cells [16] = assay type: functional, cell-based
Albumin = Albumin (Bos taurus, UniProt P02769); experiment: Counterscreen for inhibitors of T-cell receptor (TCR)-CD3 interaction: Fluorescence-based biochemical high throughput dose response assay to identify inhibitors of T-cell receptor (TCR)-CD3 interaction using a TAMRA-labeled BSA probe.; assay type: functional
INS1 = experiment: beta cell apoptosis inhibitors, cytokine rescue, dose response, luminescence, retest (AID 449756); assay type: functional, cell-based; conditions: Rattus norvegicus;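 note: cell death triggered by IL-1 beta plus TNF-alpha plus IFN-gamma mixture; protective hits raise ATP signal compared with cytokine alone wells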
[17] = cytotoxicity toward NIH3T3 fibroblasts, dose response, counter-screen, cell-based, ATP luminescence, mouse fibroblasts (AID 2010); assay type: functional;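 note: cells exposed to compound for about 90 hours before reading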
cells [18] = assay type: functional, cell-based; remark: listed apart in the source
[19] = Luminescence-based dose response cell-based high throughput screening assay for cytotoxic compounds using the IEC-6 intestinal epithelial cell line. [Related pubchem assays: 1858 (Summary AID.), 1825 (Counterscreen.), 1907 (Confirmation screen.)]; assay type: functional
[20] = human group III sPLA2 inhibitors, dose response, biochemical, QFRET, IC50 (AID 743457);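 note: green fluorescence rise as the enzyme cleaves BODIPY PC-A2 in liposomes; potency for inhibition of the enzyme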
[21] = inhibitors of intracellular T. cruzi replication, confirmation, NIH3T3 host cells, beta-gal luminescence (AID 2044); assay type: functional, cell-based;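 note: intracellular parasites grown in NIH/3T3 mouse fibroblasts as host cells; luminescent beta-galactosidase reporter signal from transgenic T. cruzi replicating inside host cells; inhibitors lower the luminescence signal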
Protein Wnt-3a = Protein Wnt-3a (Mus musculus, UniProt P27467); experiment: SAR analysis of small molecule antagonists of Gli-SUFU in a Wnt3a luminescent reporter assay.; assay type: functional
Chain of Protein Wnt-3a (P27467 whole entry): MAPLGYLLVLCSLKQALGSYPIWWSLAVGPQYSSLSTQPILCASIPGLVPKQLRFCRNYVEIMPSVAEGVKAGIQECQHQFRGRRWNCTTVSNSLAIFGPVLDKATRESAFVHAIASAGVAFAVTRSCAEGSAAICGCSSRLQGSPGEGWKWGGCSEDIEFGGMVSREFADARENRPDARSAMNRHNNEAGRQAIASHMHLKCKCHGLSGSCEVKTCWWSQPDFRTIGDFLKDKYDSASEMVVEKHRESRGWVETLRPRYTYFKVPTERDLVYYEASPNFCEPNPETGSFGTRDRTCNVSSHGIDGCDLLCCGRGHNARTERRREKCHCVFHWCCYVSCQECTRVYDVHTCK

Chain of Albumin (P02769 whole entry): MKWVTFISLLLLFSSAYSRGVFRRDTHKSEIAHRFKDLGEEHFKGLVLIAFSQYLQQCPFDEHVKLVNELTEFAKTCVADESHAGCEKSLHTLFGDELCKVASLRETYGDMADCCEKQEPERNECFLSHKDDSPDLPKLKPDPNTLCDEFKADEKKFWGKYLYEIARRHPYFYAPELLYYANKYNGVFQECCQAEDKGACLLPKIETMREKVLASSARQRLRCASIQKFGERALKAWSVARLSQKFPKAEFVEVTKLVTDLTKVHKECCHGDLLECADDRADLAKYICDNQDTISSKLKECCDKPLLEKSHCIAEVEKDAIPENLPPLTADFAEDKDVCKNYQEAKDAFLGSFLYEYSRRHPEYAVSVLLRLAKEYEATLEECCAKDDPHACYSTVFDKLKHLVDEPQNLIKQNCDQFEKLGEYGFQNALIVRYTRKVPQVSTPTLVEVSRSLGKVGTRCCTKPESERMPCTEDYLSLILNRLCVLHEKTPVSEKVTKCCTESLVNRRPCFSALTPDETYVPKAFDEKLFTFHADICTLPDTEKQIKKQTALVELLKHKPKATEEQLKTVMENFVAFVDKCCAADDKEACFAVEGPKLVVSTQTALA
Chain of Transitional endoplasmic reticulum ATPase (Homo sapiens, UniProt P55072, C522A) (P55072 2-806 C522A limits assumed): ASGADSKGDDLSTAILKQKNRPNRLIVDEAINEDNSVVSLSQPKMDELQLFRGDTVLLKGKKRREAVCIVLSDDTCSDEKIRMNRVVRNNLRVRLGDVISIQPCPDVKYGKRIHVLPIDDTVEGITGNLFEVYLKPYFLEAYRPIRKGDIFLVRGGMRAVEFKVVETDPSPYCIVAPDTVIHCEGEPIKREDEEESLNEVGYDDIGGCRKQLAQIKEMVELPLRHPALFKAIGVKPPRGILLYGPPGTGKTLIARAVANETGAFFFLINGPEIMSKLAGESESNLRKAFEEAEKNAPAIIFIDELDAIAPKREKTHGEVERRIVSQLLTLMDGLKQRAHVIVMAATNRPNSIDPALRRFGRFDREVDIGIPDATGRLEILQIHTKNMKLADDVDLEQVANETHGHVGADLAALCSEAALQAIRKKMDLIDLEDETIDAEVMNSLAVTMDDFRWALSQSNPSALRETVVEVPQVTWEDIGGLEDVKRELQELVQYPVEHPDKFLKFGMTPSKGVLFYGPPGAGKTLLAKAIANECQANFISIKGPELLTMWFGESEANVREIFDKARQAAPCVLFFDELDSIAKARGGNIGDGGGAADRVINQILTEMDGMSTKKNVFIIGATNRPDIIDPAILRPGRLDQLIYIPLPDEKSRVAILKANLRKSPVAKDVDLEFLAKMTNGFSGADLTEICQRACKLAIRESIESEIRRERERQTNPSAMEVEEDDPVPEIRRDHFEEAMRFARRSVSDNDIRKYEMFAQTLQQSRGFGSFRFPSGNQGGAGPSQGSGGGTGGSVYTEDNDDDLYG
Chain of Transitional endoplasmic reticulum ATPase (Homo sapiens, UniProt P55072) (P55072 whole entry): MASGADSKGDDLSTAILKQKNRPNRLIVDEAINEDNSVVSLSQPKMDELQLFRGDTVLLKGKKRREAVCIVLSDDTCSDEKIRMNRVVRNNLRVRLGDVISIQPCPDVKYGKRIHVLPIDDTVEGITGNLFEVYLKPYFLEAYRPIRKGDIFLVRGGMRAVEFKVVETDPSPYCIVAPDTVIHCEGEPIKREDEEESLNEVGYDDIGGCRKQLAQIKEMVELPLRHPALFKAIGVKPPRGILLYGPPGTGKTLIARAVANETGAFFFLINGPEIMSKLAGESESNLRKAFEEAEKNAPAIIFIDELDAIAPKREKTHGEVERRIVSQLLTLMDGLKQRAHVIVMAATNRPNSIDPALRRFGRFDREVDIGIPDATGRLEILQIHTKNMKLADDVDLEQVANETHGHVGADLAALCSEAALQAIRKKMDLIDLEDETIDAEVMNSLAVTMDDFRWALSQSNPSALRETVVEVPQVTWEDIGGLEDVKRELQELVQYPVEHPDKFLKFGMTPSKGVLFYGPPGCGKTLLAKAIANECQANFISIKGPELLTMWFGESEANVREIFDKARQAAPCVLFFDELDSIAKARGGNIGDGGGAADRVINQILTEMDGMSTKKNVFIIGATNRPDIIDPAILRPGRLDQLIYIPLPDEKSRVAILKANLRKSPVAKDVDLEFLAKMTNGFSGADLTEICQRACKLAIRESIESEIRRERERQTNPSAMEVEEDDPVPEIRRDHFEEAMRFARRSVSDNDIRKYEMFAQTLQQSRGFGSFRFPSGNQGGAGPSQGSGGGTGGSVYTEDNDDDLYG
Chain of Endoplasmic reticulum aminopeptidase 1 (Q9NZ08 whole entry): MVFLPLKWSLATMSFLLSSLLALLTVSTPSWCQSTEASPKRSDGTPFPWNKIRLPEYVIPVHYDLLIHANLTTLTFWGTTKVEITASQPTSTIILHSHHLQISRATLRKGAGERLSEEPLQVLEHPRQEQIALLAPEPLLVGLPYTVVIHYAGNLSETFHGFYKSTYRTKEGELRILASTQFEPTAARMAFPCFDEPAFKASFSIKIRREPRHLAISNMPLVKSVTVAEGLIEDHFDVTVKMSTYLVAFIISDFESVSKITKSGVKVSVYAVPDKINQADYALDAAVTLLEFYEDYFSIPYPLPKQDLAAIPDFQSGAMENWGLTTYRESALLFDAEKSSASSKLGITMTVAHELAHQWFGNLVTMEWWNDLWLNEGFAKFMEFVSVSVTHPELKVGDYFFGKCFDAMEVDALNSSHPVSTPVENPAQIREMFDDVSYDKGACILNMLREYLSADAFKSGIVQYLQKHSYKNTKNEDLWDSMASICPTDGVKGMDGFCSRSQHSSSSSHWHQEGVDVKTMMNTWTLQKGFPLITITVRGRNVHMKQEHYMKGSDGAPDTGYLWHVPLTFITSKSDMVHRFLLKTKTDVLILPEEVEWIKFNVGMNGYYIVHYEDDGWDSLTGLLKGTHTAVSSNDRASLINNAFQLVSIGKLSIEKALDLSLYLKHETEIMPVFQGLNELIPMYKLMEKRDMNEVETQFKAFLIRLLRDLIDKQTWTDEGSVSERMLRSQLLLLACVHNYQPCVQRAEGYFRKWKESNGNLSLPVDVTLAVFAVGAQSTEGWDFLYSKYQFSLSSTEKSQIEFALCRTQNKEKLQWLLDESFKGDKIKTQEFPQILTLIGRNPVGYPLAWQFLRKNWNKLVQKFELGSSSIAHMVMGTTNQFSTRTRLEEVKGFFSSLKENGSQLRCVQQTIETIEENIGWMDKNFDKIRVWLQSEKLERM
Chain of Paired box protein Pax-8 (Q06710 whole entry): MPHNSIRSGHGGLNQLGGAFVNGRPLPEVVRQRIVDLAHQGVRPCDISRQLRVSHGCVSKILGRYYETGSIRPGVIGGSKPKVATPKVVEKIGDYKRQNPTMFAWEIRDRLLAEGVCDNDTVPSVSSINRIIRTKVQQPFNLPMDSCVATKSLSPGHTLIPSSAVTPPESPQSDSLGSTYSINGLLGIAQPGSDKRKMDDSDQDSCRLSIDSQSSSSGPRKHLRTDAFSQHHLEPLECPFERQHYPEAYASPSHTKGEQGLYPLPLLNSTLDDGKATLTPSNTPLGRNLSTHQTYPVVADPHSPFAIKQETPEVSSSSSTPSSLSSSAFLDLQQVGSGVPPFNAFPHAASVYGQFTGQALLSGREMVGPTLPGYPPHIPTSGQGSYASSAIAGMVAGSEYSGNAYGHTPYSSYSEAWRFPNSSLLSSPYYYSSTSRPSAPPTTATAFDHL
Chain of NS3 (A3EZJ3 whole entry): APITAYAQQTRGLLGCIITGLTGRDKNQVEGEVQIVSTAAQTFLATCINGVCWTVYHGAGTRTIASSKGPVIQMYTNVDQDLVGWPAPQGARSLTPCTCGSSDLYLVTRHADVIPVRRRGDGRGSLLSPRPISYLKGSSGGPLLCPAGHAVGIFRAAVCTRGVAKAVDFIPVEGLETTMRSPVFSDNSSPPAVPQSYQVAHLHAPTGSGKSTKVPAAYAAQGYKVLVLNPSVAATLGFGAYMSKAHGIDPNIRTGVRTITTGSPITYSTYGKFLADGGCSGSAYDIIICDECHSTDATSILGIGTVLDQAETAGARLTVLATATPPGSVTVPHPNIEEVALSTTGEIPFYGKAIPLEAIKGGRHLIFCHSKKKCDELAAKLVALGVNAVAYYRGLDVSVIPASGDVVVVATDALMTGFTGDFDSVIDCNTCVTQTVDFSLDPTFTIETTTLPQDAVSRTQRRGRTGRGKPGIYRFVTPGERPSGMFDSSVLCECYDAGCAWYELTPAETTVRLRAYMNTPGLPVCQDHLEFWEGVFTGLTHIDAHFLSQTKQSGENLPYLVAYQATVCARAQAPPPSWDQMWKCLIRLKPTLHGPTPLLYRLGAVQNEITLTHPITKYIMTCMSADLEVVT

C[C@@H]1CN([C@@H](C)CO)S(=O)(=O)c2ccc(C#C[C@@H](C)O)cc2O[C@@H]1CN(C)Cc1ccc(-c2ccccc2)cc1
AC50 (Paired box protein Pax-8): 12.3 µM (active)
AC50 [1]: > 52 µM (inactive)
AC50 [2]: > 70 µM (inactive)

CC1=C(C#N)c2nc(N)c(C#N)c(C)c2/C1=C/c1ccc(-c2ccc(C(=O)O)c(Cl)c2)o1
EC50 (Bcl-2-like protein 10): 1.65 µM (active)

Cc1cc(N2C(=O)C(O)=C(C(=O)c3ccco3)C2c2cccc(Oc3ccccc3)c2)no1 (stereo not drawn)
IC50 (NS3): 2.64 µM (active)
IC50 (Genome polyprotein): 64.6 µM (active)

COc1ccc(CSc2nnc(-c3ccc(Cl)cc3)o2)nc1
IC90 [3]: 2 µM (active)
IC90 [4]: 2 µM (active)

CN(C)CCOC(c1ccc(Cl)cc1)c1ccccn1 (stereo not drawn) [CARBINOXAMINE MALEATE]
IC50 [5]: 21.4 µM (inactive)
IC50 (cells [6]): > 33.3 µM (inactive)

C[C@H]1CN([C@@H](C)CO)C(=O)c2cccc(NC(=O)c3ccncc3)c2O[C@@H]1CN(C)Cc1ccc(F)cc1Cl
AC50 [7]: 0.0324 µM (active)

Cc1cc(-c2csc(Nc3ccc(C#N)cc3)n2)c(C)n1CCc1ccccc1
IC50 [8]: > 50 µM (not active)
IC50 [9]: > 50 µM (not active)

CCCNC(=O)N(C)C[C@@H]1Oc2ncc(-c3ccncc3)cc2C(=O)N([C@H](C)CO)C[C@@H]1C
AC50 [10]: 16.9 µM (active)

COc1cccc(NC(=O)N2[C@@H](CO)[C@H](c3ccccc3)[C@@H]2CNCC(C)C)c1
AC50 [11]: 95.4 µM (active)
AC50 [12]: 1.66 µM (active)
AC50 [13]: 0.852 µM (active)
AC50 [14]: 1.46 µM (active)
AC50 [15]: 2.02 µM (active)

C/C(=N\NC(=O)c1nnn(-c2nonc2N)c1-c1ccccc1)c1ccccc1O
EC50 (cells [16]): 58.5 µM (active)
IC50 (Albumin): > 94.1 µM (inactive)
AC50 (INS1): 0.353 µM (active)
EC50 [17]: 3.76 µM (active)
EC50 (cells [18]): 113 µM (active)
IC50 [19]: 1.19 µM (active)
IC50 [20]: > 122 µM (inactive)
EC50 [21]: 0.617 µM (active)

CN(C)c1cc(NC(=O)c2ccccc2)ncn1
IC50 (Protein Wnt-3a): > 21.8 µM (inactive)
